These results are taken from ChEMBL document CHEMBL5137001, “Examination of multiple Trypanosoma cruzi targets in a new drug discovery approach for Chagas disease” (Bioorg Med Chem, 2022).

Experiment [1] addresses T1, Triosephosphate isomerase, glycosomal (Trypanosoma cruzi, UniProt P52270). Put plainly: Inhibition of recombinant Trypanosoma cruzi TIM using glyceraldehyde 3-phosphate as substrate.
The target in experiment [2] is T2, Bifunctional dihydrofolate reductase-thymidylate synthase (Trypanosoma cruzi, UniProt Q27793). Put plainly: Inhibition of recombinant Trypanosoma cruzi DHFR-TS assessed as inhibition constant.
For experiment [3], the target named is T1, Triosephosphate isomerase, glycosomal. Put plainly: Inhibition of Trypanosoma cruzi TIM expressed in Escherichia coli using glyceraldehyde 3-phosphate as substrate preincubated for 2 hrs in presence of NADH/alphaGDPH by spectrophotometry.
Experiment [4] has the same target. Put plainly: Inhibition of Trypanosoma cruzi TIM.
The target is the same in experiment [5]. In words: Inhibition of Trypanosoma cruzi TIM expressed in Escherichia coli using glyceraldehyde 3-phosphate as substrate in presence of NADH/alphaGDPH measured after 2 hrs by spectrophotometry.
The target of experiment [6] is T3, Cruzipain (Trypanosoma cruzi, UniProt P25779). Put plainly: Inhibition of Trypanosoma cruzi Cruzaine using Z-Phe-Arg-AMC as substrate preincubated for 15 mins measured for 10 mins by […].
Experiment [7] deals with T3, Cruzipain. Put plainly: Inhibition of Trypanosoma cruzi Cruzaine.
Experiment [8] can be described thus: Inhibition of Trypanosoma cruzi DHODH assessed as inhibition constant measured for 5 mins by spectrophotometry.
The target of experiment [9] is Sterol 14-alpha demethylase (Trypanosoma cruzi (strain CL Brener), UniProt Q7Z1V1). In words: Displacement of [3H]-Eubricol from C-terminal His-tagged full-length Trypanosoma cruzi Tulahuen strain CYP51 expressed in Escherichia coli HMS174(DE3) assessed as dissociation constant preincubated for 5 mins measured after 60 mins by enzymatic assay. A general note: Displacement assays read how much labelled ligand stays bound in the presence of the test substance.

Experiment [10] deals with T4, Trypanothione reductase (Trypanosoma cruzi, UniProt P28593). In words: Inhibition of Trypanosoma cruzi TR assessed as inhibition constant.
In experiment [11] the target is T4, Trypanothione reductase. In words: Inhibition of Trypanosoma cruzi TR assessed as inhibition constant in presence of NADPH.
Experiment [12] addresses T3, Cruzipain. Put plainly: Inhibition of Cruzaine derived from epimastigotes of Trypanosoma cruzi Tul2 strain using Z-FR-AMC as substrate assessed as release of 7-amino-4-methylcoumarin by fluorimetry.
Experiment [13] addresses T2, Bifunctional dihydrofolate reductase-thymidylate synthase. In words: Inhibition of Trypanosoma cruzi DHFR-TS assessed as inhibition constant using DHF as substrate in presence of NADPH by spectrophotometry.
A short description of experiment [14]: Inhibition of Trypanosoma cruzi PTR1 using folic acid as substrate in presence of NADPH by spectrophotometry.
For experiment [15], the target named is T2, Bifunctional dihydrofolate reductase-thymidylate synthase. Put plainly: Inhibition of Trypanosoma cruzi DHFR-TS in presence of NADPH by spectrophotometry.

T3 sequence (P25779 whole entry): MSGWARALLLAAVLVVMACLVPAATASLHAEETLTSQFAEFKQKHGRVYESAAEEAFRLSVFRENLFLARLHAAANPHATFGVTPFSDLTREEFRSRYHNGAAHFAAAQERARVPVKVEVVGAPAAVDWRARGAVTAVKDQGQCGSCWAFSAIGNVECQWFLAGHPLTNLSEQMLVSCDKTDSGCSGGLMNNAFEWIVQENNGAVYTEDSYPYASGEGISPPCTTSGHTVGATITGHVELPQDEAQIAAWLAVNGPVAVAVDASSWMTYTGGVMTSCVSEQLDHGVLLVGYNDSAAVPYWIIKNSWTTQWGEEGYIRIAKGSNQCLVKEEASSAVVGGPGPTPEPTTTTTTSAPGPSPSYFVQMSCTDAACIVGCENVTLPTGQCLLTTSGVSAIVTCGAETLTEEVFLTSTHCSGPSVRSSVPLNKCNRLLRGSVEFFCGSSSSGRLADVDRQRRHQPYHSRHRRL
T4 sequence (P28593 whole entry): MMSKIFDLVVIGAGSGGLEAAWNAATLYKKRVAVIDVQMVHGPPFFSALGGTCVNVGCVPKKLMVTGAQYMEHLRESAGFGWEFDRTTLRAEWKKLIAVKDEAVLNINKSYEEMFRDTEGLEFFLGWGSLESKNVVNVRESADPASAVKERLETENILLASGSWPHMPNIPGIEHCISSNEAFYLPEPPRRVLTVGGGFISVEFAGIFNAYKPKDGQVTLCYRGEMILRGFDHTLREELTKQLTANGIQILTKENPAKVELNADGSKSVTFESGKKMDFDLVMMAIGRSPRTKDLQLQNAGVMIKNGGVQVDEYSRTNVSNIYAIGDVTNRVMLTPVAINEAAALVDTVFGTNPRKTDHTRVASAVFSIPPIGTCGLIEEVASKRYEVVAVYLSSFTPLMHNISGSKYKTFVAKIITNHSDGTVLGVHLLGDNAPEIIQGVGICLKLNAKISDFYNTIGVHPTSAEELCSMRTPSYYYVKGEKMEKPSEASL
T2 sequence (Q27793 whole entry): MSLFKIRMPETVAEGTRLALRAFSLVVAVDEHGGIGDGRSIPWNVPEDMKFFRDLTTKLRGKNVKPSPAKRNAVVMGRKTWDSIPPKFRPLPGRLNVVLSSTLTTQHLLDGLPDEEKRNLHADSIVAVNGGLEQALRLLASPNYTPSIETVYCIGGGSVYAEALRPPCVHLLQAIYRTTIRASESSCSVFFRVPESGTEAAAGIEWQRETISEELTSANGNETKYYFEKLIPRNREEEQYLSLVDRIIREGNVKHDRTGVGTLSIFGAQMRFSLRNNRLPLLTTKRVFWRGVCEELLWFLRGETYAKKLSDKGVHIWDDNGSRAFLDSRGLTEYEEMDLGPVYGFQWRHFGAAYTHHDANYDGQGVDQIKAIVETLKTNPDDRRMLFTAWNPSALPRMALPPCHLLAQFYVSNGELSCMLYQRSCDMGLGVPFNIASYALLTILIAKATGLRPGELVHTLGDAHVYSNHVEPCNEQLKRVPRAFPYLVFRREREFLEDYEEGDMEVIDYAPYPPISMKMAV
T1 sequence (P52270 whole entry): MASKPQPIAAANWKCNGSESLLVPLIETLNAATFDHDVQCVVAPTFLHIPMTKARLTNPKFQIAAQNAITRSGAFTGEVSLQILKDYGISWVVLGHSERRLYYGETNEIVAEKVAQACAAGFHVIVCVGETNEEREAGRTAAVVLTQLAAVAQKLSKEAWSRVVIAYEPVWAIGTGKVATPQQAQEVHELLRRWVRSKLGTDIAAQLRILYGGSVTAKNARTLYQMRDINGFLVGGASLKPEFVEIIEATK
Chain of Sterol 14-alpha demethylase (Q7Z1V1 whole entry): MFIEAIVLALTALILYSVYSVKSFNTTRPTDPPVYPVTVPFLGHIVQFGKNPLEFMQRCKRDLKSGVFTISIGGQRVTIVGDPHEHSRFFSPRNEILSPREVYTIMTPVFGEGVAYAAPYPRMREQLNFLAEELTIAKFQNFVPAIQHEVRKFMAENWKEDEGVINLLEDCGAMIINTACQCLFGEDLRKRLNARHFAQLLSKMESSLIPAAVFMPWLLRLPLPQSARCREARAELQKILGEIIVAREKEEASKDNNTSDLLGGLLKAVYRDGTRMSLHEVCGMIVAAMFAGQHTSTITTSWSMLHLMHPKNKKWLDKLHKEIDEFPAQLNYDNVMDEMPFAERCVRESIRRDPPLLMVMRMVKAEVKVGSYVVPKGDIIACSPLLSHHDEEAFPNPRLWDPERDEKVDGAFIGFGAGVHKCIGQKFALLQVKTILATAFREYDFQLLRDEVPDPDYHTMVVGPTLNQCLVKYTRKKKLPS

Usually IC50 stands for the concentration that inhibits the measured activity by half. On to `O=S(=O)(O)CCCSc1nc2ccccc2s1`, for which, in experiment [1], the IC50 is 33 µM. Usually Ki stands for the dissociation constant of the complex between target and ligand, obtained from inhibition or displacement. `CC(C)Oc1cccc(Cc2cnc(N)nc2N)c1`: the Ki in experiment [2] is 0.023 µM. As to `Cc1ccc2nc(-c3ccc4nc(-c5ccc(N)cc5)sc4c3)sc2c1S(=O)(=O)O`, the IC50 in [1] is 8 µM. With `[O-][NH+]1c2ccc(O)cc2[NH+]([O-])c2cc(Cl)c(Cl)cc21` (configuration not stated), in experiment [3], the IC50 came out at 26 µM. `O=C(/C=C/C=C/c1ccco1)/C=C/C=C/c1ccco1` displayed an IC50 in experiment [4] of 3 µM. On to `COc1ccc(-c2c/c(=[S+]/CC(C)=O)ss2)cc1`, for which the IC50 in experiment [5] is 11 µM. Regarding `O=C1/C(=C/C=C/c2ccco2)CCC/C1=C\C=C\c1ccco1`, the IC50 in experiment [6] stood at 37 µM. Compound `CCOC(=O)/C=C/C(=O)[C@H](CC(C)C)NC(=O)[C@@H](CC(=O)c1ccccc1)Cc1ccccc1` showed an IC50 in experiment [7] of 20 µM. With `O=C1NC(=O)C(CCc2ccc3cc(C(=O)O)ccc3c2)C(C(=O)O)N1` (configuration not stated), the Ki in experiment [8] was 0.02 µM. As usually defined, the Kd is the concentration at which binding is half-saturated. For `OC(Cn1cnnn1)(c1ccc(F)cc1F)C(F)(F)c1ccc(-c2ccc(OCC(F)(F)F)cn2)cn1` (configuration not stated), the Kd in [9] turned out to be 0.024 µM. Consider `O=C(CSc1nc2ccccc2[nH]1)Nc1ncc([N+](=O)[O-])s1`, for which, in experiment [4], it took 3 µM to reach half-maximal inhibition (IC50). For `Nc1ncc(Cc2ccc(Oc3ccccc3)cc2)c(N)n1`, the inhibition constant Ki in experiment [2] turned out to be 0.03 µM. Turning to `CC(C)CC(=O)c1ccc2c(c1)[n+]([O-])c(C(=O)C(C)C)c(C(F)(F)F)[n+]2[O-]`, the Ki in [10] was determined as 19 µM. On the same count and under the same terms, next, `CN1CCN(CCn2ccc3cc(-c4ncc(C5(N6CCCC6)CCCCC5)s4)ccc32)CC1`: 3.8 µM. `COc1ccc(NC(=O)COC(=O)C(CC(C)C)N2C(=O)C(Cl)=C(Cl)C2=O)cc1` (configuration not stated) gave an IC50 in experiment [7] of 0.6 µM.

Turning to `O=C1C(Br)=C(Oc2ccc3ccccc3c2)C(=O)c2ccccc21`, the Ki in experiment [11] came to 1.1 µM. In the case of `c1ccc(-c2sc(C3(N4CCCC4)CCCCC3)cc2-c2ccc3cc[nH]c3c2)cc1`, the Ki in [10] amounted to 10 µM. For the compound `Cc1ccc(C)c(OC2=CC(=O)c3ccncc3C2=O)c1`, the Ki in experiment [11] worked out at 6 µM. For the compound `CC(C)CC(NC(=O)c1ccc(-c2ccccc2)o1)C(=O)NC1(C#N)CC1` (configuration not stated), the IC50 in experiment [12] is 30.3 µM. Turning to `COc1cc(NCc2ccc3nc(N)ncc3c2C)cc(OC)c1OC`, the Ki in [13] was 0.0066 µM. With `CN(Cc1cnc2nc(N)nc(N)c2n1)c1ccc(C(=O)N[C@@H](CCC(=O)O)C(=O)O)cc1` [METHOTREXATE], the values for the IC50 in experiment [14] and in experiment [15] were 0.038 nM and 0.11 µM, respectively.
